One data set deals with human thrombin (Homo sapiens, UniProt P00734). Nature of the data set: Determination of the inhibition constants (Ki) for thrombin. It counts as biochemical. The settings on record: human thrombin 100 pM, substrate S2238, pH 7.8, 37 degrees C., 60 min preincubation. The procedure: (§1) The inhibitors according to the invention have been tested according to various criteria to assess their efficacy, these preferably being the determination of the Ki value, of the IC50 value and of the partial thrombo-plastin time (PTT) in vivo and in vitro. To test the specificity, the IC50 values and Ki values with respect to various serine proteases, especially thrombin and trypsin, were measured. The stability of the substances according to the invention was determined by incubating a sample of the substance with a pure enzyme, preferably trypsin, chymotrypsin or papain, and with liver or intestinal homogenates, taking samples from the solutions at intervals of time, and preferably measuring by HPLC.
The inhibition constants (Ki) for the substances were determined by known enzyme kinetic methods. The human thrombin employed was determined to be 87% pure by means of active site titration. […] The inhibitor and enzyme were preincubated for 60 minutes, and the reaction was started by addition of the chromogenic substrate S2238. The kinetics were analyzed using the mathematical algorithm for tight binding, which with the aid of non-linear regression yielded Ki values (table) and the type of inhibition.

The nature of data set [1]: Determination of the elimination half-lives t1/2 β, intravenous, rats. In kind it is in vivo. Particulars: rat, i.v., 5 mg/kg, plasma, calculated, second phase. Here is the method: Determination of the Elimination Half-lives t1/2 β The thrombin inhibitors (2)-(5) in the table were administered intravenously to rats (5 in each group) at a dosage of 5 mg/kg. Blood samples were taken, and the time-dependent concentrations of thrombin inhibitors in the plasma were determined. Elimination takes place in two phases. The calculated elimination half-lives t1/2 β are compiled in it.

A further data set addresses T1, trypsin (Bos taurus, UniProt P00760).
T1 sequence (P00760 24-246): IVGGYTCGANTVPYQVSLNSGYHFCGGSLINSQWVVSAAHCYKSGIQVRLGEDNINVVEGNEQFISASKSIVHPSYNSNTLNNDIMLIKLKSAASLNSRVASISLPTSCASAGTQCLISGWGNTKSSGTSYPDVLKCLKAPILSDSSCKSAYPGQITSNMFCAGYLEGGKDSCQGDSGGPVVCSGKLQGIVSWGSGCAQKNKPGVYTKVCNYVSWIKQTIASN
Nature of the data set: Ki with respect to trypsin (specificity of the inhibitors). In kind it is biochemical. Here is the method: as §1
The specificity of the inhibitors was determined with thrombin and trypsin. The specificity is defined as the ratio of the Ki values for trypsin and thrombin (table).

A short description of data set [2]: Determination of the subcutaneous absorption of substances (2) and (5), rabbits. The settings on record: 2 mg/kg. It counts as in vivo. Here is the method:
The substances were administered to rabbits subcutaneously in a dosage of 2 mg/kg. The maximum plasma concentration of (5) was reached after 5 minutes. The maximum plasma concentration of (2) was reached after 80 minutes.

What is called Ki is the dissociation constant of the complex between target and ligand, obtained from inhibition or displacement. High values mean lower affinity, low ones higher affinity. A word on the half-life: it is how long it takes for the measured level to halve.

With `COc1cc(C)c(S(=O)(=O)N[C@@H](CC(=O)O)C(=O)N[C@H](Cc2ccc(C(=N)N)cc2)C(=O)N2CCCCC2)c(C)c1C` [(5)], the Ki at human thrombin came out at 2.5 nM; at trypsin it was 312 nM. The half-life in data set [1] was 19 min. Also, the Tmax in data set [2] (rabbit, plasma, sc, read-out: time to maximum plasma concentration (converted)) is 5 min. Moreover, the “duration of effective plasma level” value in data set [2] (s.c.) turned out to be 3 h.

(Values after patent US5571844A, “Amidinophenylalanine derivatives, a process for their preparation, their use and compositions containing these as anticoagulants” (Behringwerke Aktiengesellschaft, priority 1993, dated 1996).)
